Square brackets hold non-standard residues; d marks the D form. Ends that are not written are not given here. pGlu = O=C1CC[C@@H](C(=O)O)N1
Legend:
[1] = tested on: Hepatic Disorder Rat Model; test: Administration test using hepatic disorder rat model (D-galactosamine), intraperitoneal peptide (Test Example 1); assay type: in vivo; details: peptide 20 mg/kg intraperitoneally 1 hour before, Wistar rats; for GOT: blood GOT level 24 hours after D-galactosamine 800 mg/kg i.p., water control 391; for GPT: blood GPT level 24 hours after D-galactosamine 800 mg/kg i.p., water control 50
Method: (§1) Wistar rats (4- to 5-week old) were used for the experiment. Rats were preliminarily fed for a week with purified standard feeds and subjected to fasting for 4 hours. pyroGlu-Leu obtained in Production Example 2 and pyroGlu-Ile obtained in Production Example 3 were each dissolved in water at 10 mg/l ml, and the resulting solutions were administered intraperitoneally in amounts of 20 mg/kg each. D-galactosamine (Sigma) was administered intraperitoneally in an amount of 800 mg/kg 1 hour later. Rats were allowed to freely eat 4 hours after D-galactosamine administration. Each group consisted of 5 rats, and water was administered to the control group instead of the peptide of the present invention.
(§2) Blood was sampled from the rats 24 hours after D-galactosamine administration, and GOT and GPT levels in the blood were assayed to compare the degrees of hepatic disorders.
(§3) GOT and GPT levels were assayed in accordance with the JSCC standardization method (Hiroshi Miura, Japanese Journal of Clinical Medicine (Nippon Rinsho), 53-reprinted-266, 1995).

[2] = tested on: Hepatic Disorder Rat Model; test: Administration test using hepatic disorder rat model (D-galactosamine), oral peptide (Test Example 2); assay type: in vivo; details: peptide 40 mg/kg orally, Wistar rats; for GOT: blood GOT level 24 hours after D-galactosamine 800 mg/kg i.p., water control 2180; for GPT: blood GPT level 24 hours after D-galactosamine 800 mg/kg i.p., water control 391
Method: as §1, §2, §3
The test was carried out in the same manner as in Test Example 1. pyroGlu-Gln-Gln, pyroGlu-Gln, pyroGlu-Leu, or pyroGlu-Ile obtained in Production Example 5 was dissolved in water at 10 mg/l ml, and the resulting solution was administered orally to rats in amounts of 40 mg/kg.

## [pGlu]-Leu
[1]
  GOT: 215 IU/L
  GPT: 30 IU/L
[2]
  GOT: 555 IU/L
  GPT: 131 IU/L

## [pGlu]-Gln
[2]
  GOT: 509 IU/L
  GPT: 124 IU/L

## [pGlu]-Ile
[1]
  GOT: 314 IU/L
  GPT: 45 IU/L
[2]
  GOT: 491 IU/L
  GPT: 98 IU/L

## [pGlu]-Gln-Gln
[2]
  GOT: 524 IU/L
  GPT: 100 IU/L

Reference: patent US20100190723A1, “PREVENTIVE OR THERAPEUTIC COMPOSITION FOR LIVER DISEASE” (priority 2007, published 2010)
